Data published in patent US10435408B2, “Azepine derivatives as 5-HT7 receptor modulators” (KOREA INSTITUTE OF SCIENCE AND TECHNOLOGY, priority 2016, dated 2019).

Molecular target: Human gene recombinant 5-HT7 receptor (Homo sapiens (Human), UniProt P34969)
Experiment: Measurement of binding affinity for serotonin 5-HT7 receptor ([3H]LSD radioligand binding)
Settings: [3H]LSD 1 nM, 5-HT7 receptor membrane from CHO cells; for inhibition at 10 µM: 10 μM compound; for Ki: nonlinear regression
Procedure: Human gene recombinant 5-HT7 receptor expressed in Chinese hamster ovary (CHO) cells was used. [^3H]LSD 1 nM, the 5-HT7 receptor membrane (15 μg/well), each of the samples of Example 1-20 at various concentrations, 10 mM MgCl2, and 50 mM Tris-HCl buffer (pH 7.4) containing 0.1 mM EDTA were added to a vessel until the final volume reached 0.25 ml. The reaction mixture was incubated at 25° C. for 90 min. The incubated reaction mixture was rapidly passed through a Whatman GF/C glass fiber filter, which had been previously soaked with 0.3% polyethyleneimine, using a Brandel-Harvester to quench the reaction and washed with cold 50 mM Tris-HCl buffer. The filter was covered with MeltiLex, sealed in a sample bag, and dried in an oven. The radioactivity retained in the filter was counted using MicroBeta (Wallac). Non-specific binding was determined in the presence of 0.5 μM Mianserin.

Human gene recombinant 5-HT7 receptor, sequence (P34969 whole entry): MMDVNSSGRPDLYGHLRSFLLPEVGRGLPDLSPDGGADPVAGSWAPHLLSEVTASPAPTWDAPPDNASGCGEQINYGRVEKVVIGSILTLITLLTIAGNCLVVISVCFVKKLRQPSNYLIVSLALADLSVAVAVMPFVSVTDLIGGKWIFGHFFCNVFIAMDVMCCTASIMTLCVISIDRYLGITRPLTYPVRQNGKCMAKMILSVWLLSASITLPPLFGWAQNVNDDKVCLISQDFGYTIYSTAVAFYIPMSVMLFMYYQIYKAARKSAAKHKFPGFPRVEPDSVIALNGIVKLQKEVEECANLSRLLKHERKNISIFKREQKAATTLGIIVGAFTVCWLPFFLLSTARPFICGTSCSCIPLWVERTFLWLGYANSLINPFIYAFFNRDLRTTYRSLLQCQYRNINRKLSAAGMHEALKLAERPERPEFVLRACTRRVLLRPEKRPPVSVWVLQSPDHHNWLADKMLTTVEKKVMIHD

inhibition at 10 µM [%] | Ki [nM] | Compound
84.2 | 322 | c1ccc(-c2n[nH]c3c2CCNCC3)cc1 [Example 1, 3-phenyl-1,4,5,6,7,8-hexahydropyrazolo[3,4-d]azepine]
78.9 | 714 | Fc1ccccc1-c1n[nH]c2c1CCNCC2 [Example 2, 3-(2-fluorophenyl)-1,4,5,6,7,8-hexahydropyrazolo[3,4-d]azepine]
72.9 | 1240 | Fc1cccc(-c2n[nH]c3c2CCNCC3)c1 [Example 3, 3-(3-fluorophenyl)-1,4,5,6,7,8-hexahydropyrazolo[3,4-d]azepine]
88.7 | 386 | Clc1ccccc1-c1n[nH]c2c1CCNCC2 [Example 4, 3-(2-chlorophenyl)-1,4,5,6,7,8-hexahydropyrazolo[3,4-d]azepine]
79.2 | 883 | Clc1cccc(-c2n[nH]c3c2CCNCC3)c1 [Example 5, 3-(3-chlorophenyl)-1,4,5,6,7,8-hexahydropyrazolo[3,4-d]azepine]
96.4 | 30 | Clc1ccc(-c2n[nH]c3c2CCNCC3)cc1 [Example 6, 3-(4-chlorophenyl)-1,4,5,6,7,8-hexahydropyrazolo[3,4-d]azepine]
68.5 | 881 | Cc1ccccc1-c1n[nH]c2c1CCNCC2 [Example 7, 3-(o-tolyl)-1,4,5,6,7,8-hexahydropyrazolo[3,4-d]azepine]
63 | 1440 | Cc1cccc(-c2n[nH]c3c2CCNCC3)c1 [Example 8, 3-(m-tolyl)-1,4,5,6,7,8-hexahydropyrazolo[3,4-d]azepine]
94.2 | 47 | Cc1ccc(-c2n[nH]c3c2CCNCC3)cc1 [Example 9, 3-(p-tolyl)-1,4,5,6,7,8-hexahydropyrazolo[3,4-d]azepine]
84.3 | 319 | c1ccc(-c2noc3c2CCNCC3)cc1 [Example 10, 3-phenyl-5,6,7,8-tetrahydro-4H-isoxazolo[4,5-d]azepine]
77.9 | 366 | Fc1ccccc1-c1noc2c1CCNCC2 [Example 11, 3-(2-fluorophenyl)-5,6,7,8-tetrahydro-4H-isoxazolo[4,5-d]azepine]
57.5 | 1410 | Fc1cccc(-c2noc3c2CCNCC3)c1 [Example 12, 3-(3-fluorophenyl)-5,6,7,8-tetrahydro-4H-isoxazolo[4,5-d]azepine]
94.6 | 53 | Fc1ccc(-c2noc3c2CCNCC3)cc1 [Example 13, 3-(4-fluorophenyl)-5,6,7,8-tetrahydro-4H-isoxazolo[4,5-d]azepine]
84.5 | 425 | Clc1ccccc1-c1noc2c1CCNCC2 [Example 14, 3-(2-chlorophenyl)-5,6,7,8-tetrahydro-4H-isoxazolo[4,5-d]azepine]
78.7 | 369 | Clc1cccc(-c2noc3c2CCNCC3)c1 [Example 15, 3-(3-chlorophenyl)-5,6,7,8-tetrahydro-4H-isoxazolo[4,5-d]azepine]
93.8 | 70 | Clc1ccc(-c2noc3c2CCNCC3)cc1 [Example 16, 3-(4-chlorophenyl)-5,6,7,8-tetrahydro-4H-isoxazolo[4,5-d]azepine]
41.8 | – | Cc1ccccc1-c1noc2c1CCNCC2 [Example 17, 3-(o-tolyl)-5,6,7,8-tetrahydro-4H-isoxazolo[4,5-d]azepine]
76.3 | 506 | Cc1cccc(-c2noc3c2CCNCC3)c1 [Example 18, 3-(m-tolyl)-5,6,7,8-tetrahydro-4H-isoxazolo[4,5-d]azepine]
96.3 | 16 | Cc1ccc(-c2noc3c2CCNCC3)cc1 [Example 19, 3-(p-tolyl)-5,6,7,8-tetrahydro-4H-isoxazolo[4,5-d]azepine]
87.9 | 303 | COc1ccccc1-c1noc2c1CCNCC2 [Example 20, 3-(2-methoxyphenyl)-5,6,7,8-tetrahydro-4H-isoxazolo[4,5-d]azepine]
